Legend:
mice [1] = assay: Interaction with apomorphine in mice; assay type: in vivo, mouse; details: i.p.
Description: Groups of 6 mice receive CRL 41 153 0.5 hour before the subcutaneous injection of 1 or 16 mg/kg of apomorphine.

mice [2] = assay: Spontaneous motility; assay type: in vivo, mouse; details: i.p.
Description: 0.5 hour after they have received CRL 41 153, the mice (6 per dose, 12 control animals) are placed in an actimeter, where their motility is recorded for 30 minutes.

rats [3] = assay: Interaction with amphetamine; assay type: in vivo, rat; details: i.p.
Description: Amphetamine (2 mg/kg) is injected intraperitoneally into groups of 6 rats 30 minutes after the administration of CRL 41 153. […] 4 mg/kg and 16 mg/kg, CRL 41 153 potentiates the intensity and duration of the stereotypies induced by amphetamine.

mice [4] = assay: Overall behavior and reactivities in mice; assay type: in vivo, mouse; details: dose not stated
Description: (§1) In the neuropsychopharmacological study which follows, a solution of CRL 41 153 in distilled water (pH 1.5) was administered intraperitoneally in a volume of 20 ml/kg to male mice and 5 ml/kg to male rats.
(§2) Groups of three animals are observed before and then 0.25 hour, 0.50 hour, 1 hour, 2 hours, 3 hours and 24 hours after the administration of CRL 41 153.

mice [5] = assay: Intergroup aggressiveness; assay type: in vivo, mouse; details: i.p.
Description: After they have stayed for 3 weeks in the two halves of a cage divided by an opaque partition, groups of 3 mice receive CRL 41 153. Half an hour later, the two groups from the same cage are brought together by removal of the partition, and the number of fights which occur in 10 minutes is noted.

rats [6] = assay: Interaction with apomorphine in rats; assay type: in vivo, rat; details: i.p.
Description: CRL 41 153 is administered to groups of 6 rats 0.5 hour before the subcutaneous injection of 0.5 mg/kg of apomorphine.

[7] = pH of solutions in distilled water; assay type: physicochemical
Description: The neuropsychopharmacological study was undertaken according to the procedures described above for CRL 41 153, CRL 41 213 being adminstered intraperitoneally, in solution in distilled water, in a volume of 20 ml/kg to male mice and a volume of 5 ml/kg to male rats, and the pH of the injected solution varying with the concentration of CRL 41 213 according to the data given in Table II below.

dogs = assay: Cardiovascular study in anesthetized dogs; assay type: in vivo, dog
Description: Two dogs (average weight: 14.1 kg), anesthetized with nembutal, receive CRL 41 194 by intraduodenal administration at successive doses of 0.1 mg/kg, 0.5 mg/kg, 1 mg/kg, 2.5 mg/kg, 5 mg/kg and 10 mg/kg (in solution in physiological solvent).
The blood pressure, the heart rate, the blood flow through the femoral artery, the blood flow through the vertebral artery and the rectal temperature are measured. The coloration of the skin and the coloration of the bile, collected by catheterization of the bile duct after ligature of the cystic duct, are observed.
4 dogs (average weight: 14 kg), anesthetized with nembutal, receive CRL 41 221 by intraduodenal administration at successive doses of 0.1 mg/kg, 0.5 mg/kg, 1 mg/kg, 2.5 mg/kg, 5 mg/kg and 10 mg/kg. The blood pressure, the heart rate, the blood flow through the femoral artery, the blood flow through the vertebral artery and the rectal temperature are measured. The coloration of the skin is observed.

CNS = assay: Neuropsychopharmacological profile as a whole; assay type: in vivo, mice and rats
Description: as §1

mice [8] = assay: Interaction with barbital; assay type: in vivo, mouse; details: i.p., barbital 220 mg/kg
Description: Half an hour after the administration of CRL 41 153, groups of 10 mice receive an intraperitoneal injection of barbital (220 mg/kg).

mice [9] = assay: Four plate test, traction and electric shock; assay type: in vivo, mouse; details: i.p.
Description: The test is performed on groups of 10 mice 30 minutes after the administration of CRL 41 153.

mice [10] = assay: Behavioral despair; assay type: in vivo, mouse; details: forcibly immersed mice, i.p.
Description: Half an hour after they have received CRL 41 153, groups of 6 mice are placed in a beaker filled with water to a height of 6 cm. The total period of immobility between the 2nd and 6th minutes following immersion is noted.

humans = assay: Clinical study: vasodilator; assay type: in vivo, human
Description: In the treatment of diseases associated with the blood circulation through the vessels.

mice [11] = assay: Asphyxiant anoxia (gallamine triiodoethylate); assay type: in vivo, mouse; details: i.p., curarizing agent
Description: Groups of 10 mice receive CRL 41 153 half an hour before the intraperitoneal administration of 32 mg/kg of gallamine triiodoethylate (reference curarizing agent).

mice [12] = assay: Motility reduced by hypoxic aggression; assay type: in vivo, mouse; details: i.p.
Description: Half an hour after they have received CRL 41 153, the mice (10 per dose, 20 control animals) are subjected to acute hypobaric anoxia [pressure reduction of 600 mm Hg (i.e. about 8×10^4 Pa) in 90 seconds; release of vacuum in 45 seconds] and are then placed in an actimeter, where their motility is recorded for 10 minutes.

rats [13] = assay: Overall behavior and reactivities in rats; assay type: in vivo, rat; details: dose not stated
Description: as §1, §2

mice [14] = assay: Motility reduced by habituation to the enclosure; assay type: in vivo, mouse; details: i.p.
Description: After they have stayed In the actimeters for 18 hours, (he mice (6 per dose, 12 control animals) receive CRL 41 153. They are immediately returned to their respective enclosures and, half an hour later, their motility is recorded for 30 minutes.

mice [15] = assay: Interaction with oxotremorine; assay type: in vivo, mouse; details: i.p.
Description: CRL 41 153 is administered to groups of 6 mice 0.5 hour before the intraperitoneal injection of 0.5 mg/kg of oxotremorine.

[16] = tested on: gravid White New Zealand female rabbits; assay: Teratogenicity in gravid White New Zealand rabbits; assay type: in vivo, rabbit; details: day 5 to day 18 of gestation; for Affected foetuses, %: normal limit 1.5%
Method in brief: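 Fetuses harvested by cesarean on gestation day 29 were scored for number and for any malformation (limb blockade, anury, tail or skull defects, exencephaly).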

mice [17] = assay: Interaction with reserpine; assay type: in vivo, mouse; details: i.p.
Description: Four hours after the intraperitoneal injection of 2.5 mg/kg of reserpine, groups of 6 mice receive CRL 41 153.

CCNC(C)C(=O)c1ccc(N)cc1 (stereo not drawn) [CRL 41 225]
Effect on hypothermia induced by apomorphine (mice [1]): antagonism of the hypothermia | Spontaneous motor activity (mice [2]): an increase in the spontaneous motor activity of mice | Effect on stereotypies induced by amphetamine (rats [3]): potentiation of the stereotypies | Overall behavior: observed effects (summary) (mice [4]): excitation with hyperreactivity in mice and rats | Stereotype movements (summary) (mice [4]): the presence of stereotype movements in mice and rats | Number of fights / intergroup aggressiveness (mice [5]): at strong doses, a decrease in the number of fights | Effect on stereotypies induced by apomorphine (rats [6]): potentiation of the stereotypies | pH ([7]; 0.1 g/liter in distilled water): 5.0 | pH ([7]; 0.2 g/liter in distilled water): 4.5 | pH ([7]; 0.4 g/liter in distilled water): 4.0 | pH ([7]; 0.8 g/liter in distilled water): 3.5 | pH ([7]; 2 g/liter in distilled water): 3.0 | pH ([7]; 3 g/liter in distilled water): 2.5 | pH ([7]; 13 g/liter in distilled water): 2.0 | pH ([7]; 50 g/liter in distilled water): 1.5 | pH ([7]; ≤0.05 g/liter in distilled water): 5.5 | Vasodilator (conclusion) (dogs): vasodiating properties | Antidepressant effects (overall) (CNS; conclusion of the tests): antidepressant and stimulant properties | Stimulant effects (overall) (CNS; conclusion of the tests): antidepressant and stimulant properties | α-adrenergic stimulant effects (overall) (CNS; conclusion of the tests): an α-adrenergic stimulation component | Peripheral α-adrenergic signs (mydriasis, salivation, lacrimation, exophthalmos) (CNS; species and dose not stated): at strong doses, by a reduction in the mydriasis and salivation | Duration of the sleep induced by barbital (mice [8]): a reduction in the duration of the sleep induced by barbital | Effect on convulsant effects of electric shock (mice [9]): at strong doses, a decrease in the convulsant effects of electric shock | Number of punished passes in the four plate test (mice [9]): an increase in the number of punished passes in the 4 plate test on mice | Period of immobility due to despair (mice [10]): a decrease in the period of immobility | Vasodilator in human clinical use (humans): beneficial vasodilating properties from the clinical point of view | Time taken for convulsions to occur (mice [11]): a decrease in the time taken for convulsions and death to occur | Time taken for death to occur (mice [11]): a decrease in the time taken for convulsions and death to occur | Motor recovery of mice after hypobaric hypoxia (mice [12]): improvement in the motor recovery | Overall behavior: observed effects (summary) (rats [13]): excitation with hyperreactivity in mice and rats | Stereotype movements (summary) (rats [13]): the presence of stereotype movements in mice and rats | Motor activity of mice accustomed to their enclosure (mice [14]): resumption in the motor activity of mice accustomed to their enclosure | Effect on hypothermic action of oxotremorine (mice [15]): antagonism of the hypothermia | Effect on trembling induced by oxotremorine (mice [15]): a decrease in the intensity of the trembling caused by oxotremorine | Affected foetuses, number ([16]; 5 mg/kg daily): 0 | Total foetuses (live) ([16]; 5 mg/kg daily): 91 | Affected foetuses, % ([16]; 5 mg/kg daily): 0% | Affected foetuses, number ([16]; 10 mg/kg daily): 0 | Total foetuses (live) ([16]; 10 mg/kg daily): 95 | Affected foetuses, % ([16]; 10 mg/kg daily): 0% | Effect on hypothermia induced by reserpine (mice [17]): antagonism of the hypothermia | Effect on ptosis induced by reserpine (mice [17]): a decrease in the ptosis induced by reserpine in mice

Source: patent US4980377A, “1-(aminophenyl)-2-aminopropanone derivatives” (Laboratoire L. Lafon, priority 1984, dated 1990)
